Reference: ChEMBL document CHEMBL1124029, “Novel DNA groove binding alkylators: design, synthesis, and biological evaluation” (1988)

Tested on: Vaccinia virus
Experiment: Minimum inhibitory concentration required to reduce virus induced cytopathogenicity by 50% against vaccinia virus in rabbit primary kidney cell cultures
Type: functional
Settings: Orthopoxvirus vaccinia

Row | Compound | MIC [µg/mL]
1 | Cl.Cn1cc(NC(=O)c2cc(NC(=O)C(Cl)(Cl)Cl)cn2C)cc1C(=O)NCCC(=N)N | > 100
2 | Cl.Cn1cc(NC(=O)c2cc(NC(=O)CCl)cn2C)cc1C(=O)NCCC(=N)N | 10
3 | Cl.Cn1cc(NC(=O)c2cc(NC(=O)CF)cn2C)cc1C(=O)NCCC(=N)N | 7
4 | Cl.Cn1cc(NC(=O)c2cc(NC(=O)CCCCl)cn2C)cc1C(=O)NCCC(=N)N | 20
5 | Cl.Cl.Cn1cc(NC(=O)c2cc(NC(=O)c3cc(NC=O)cn3C)cn2C)cc1C(=O)NCCC(=N)N | 0.2
6 | Cl.Cn1cc(NC(=O)c2cc(NC(=O)C3CC3)cn2C)cc1C(=O)NCCC(=N)N | > 100
7 | CC[N+](CC)(CC)CC.Cn1cc(NC(=O)c2cc(NC(=O)C(Cl)Cl)cn2C)cc1C(=O)NCCC(=N)N.O=S(=O)([O-])O | 20
8 | Cl.Cl.Cn1cc(NC(=O)c2cc(NC(=O)CNC(=N)N)cn2C)cc1C(=O)NCCC(=N)N [CONGOCIDINE] | 2
